Data: paper PMC9260180, “Blocking the Farnesyl Pocket of PDEδ Reduces Rheb-Dependent mTORC1 Activation and Survival of Tsc2-Null Cells” (Frontiers in Pharmacology, 2022)
Where “and” joins values, the source holds several entries; their conditions need not be identical. Equal entries are not always repeated.

How the values were obtained:
[1] = test system: phospho-4EBP1 (Thr37/46, Thr70) in Tsc2-null MEFs; assay: 4EBP1 phosphorylation by Western blot in Tsc2-null MEFs; assay type: cell-based, mouse; conditions: 24 h; for effect on 4EBP1 phosphorylation (p4EBP1 levels, top band): 6 µM; for change in electrophoretic pattern of total and phosphorylated 4EBP1: Deltasonamide 1 6 µM, rapamycin 20 nM
Protocol: (§1) p53−/− Tsc2+/+ mouse embryonic fibroblast (MEF) and p53−/− Tsc2−/− MEF cells (hereinafter referred to as Tsc2-wt and Tsc2-null MEFs) were kindly provided by David J. Kwiatkowski (Harvard Medical School, Boston, MA, USA). MEF cells were cultured in Dulbecco’s modified Eagles’s medium (DMEM) (Corning, New York, USA), supplemented with 100 μg/ml streptomycin (HyClone), 100 U/ml penicillin (HyClone), 10% fetal bovine serum (Biological Industries, Cromwell, USA) and incubated at 37°C in 5% CO2.
(§2) Proteins were extracted in cold lysis buffer (50 mM Tris-HCl pH 7.4; 10% glycerol; 200 mM NaCl2; 2.5 mM MgCl2; 1% Triton X-100; 1/100 protease inhibitors; 1/100 phosphatase inhibitors) and the protein concentration was determined by Bradford assay. Total proteins were denaturized in loading buffer (50 mM Tris-HCl pH 6.8; 2% SDS; 0.1% bromophenol blue; 10% glycerol; 1% β-mercaptoethanol) by boiling for 5 min, separated by SDS-PAGE, and transferred to Polyvinylidene fluoride (PVDF) membrane (MilliporeSigma, Burlington, USA). For immunoblotting, all primary antibodies were diluted 1:1.000, except for anti-β-Actin antibody (1:10000 dilution). Secondary antibodies were diluted 1:10000. Immunolabeled proteins were detected using ECL Western Blotting Detection Reagent (GE Healthcare, Chicago, USA) and visualized in Syngene PXi6 Documentation System (Frederick, MD, USA).

[2] = test system: Rheb localization in Tsc2-wt MEF cells; assay: GFP-Rheb cellular localization by confocal microscopy in Tsc2-wt MEFs; assay type: cell-based, mouse; conditions: Tsc2-wt MEF cells with GFP-Rheb, 6 µM, 24 h
Protocol: For GFP proteins, Tsc2-wt MEF cells were electroporated with 3 µg of pEGFP-C1-RhebWT (GFP-Rheb) or pEGFP-C1 (GFP only) using NEON™ Transfection System (Invitrogen). Briefly, 200.000 cells were electroporated with the 10 µl tips at 1100 V for 30 mseg (one pulse). […] Cells were fixed with 4% w/v paraformaldehyde (PFA) for 10 min and permeabilized with 0.1% Triton X-100 in Phosphate-Buffered Saline (PBS) for 30 min. Then, samples were blocked for 1 h with 3% BSA-PBS and incubated overnight with primary antibody (1:200 dilution) in a dark/wet chamber at 4°C. Next, fixed cells were incubated with secondary antibody (1:500 dilution) and Hoechst (1:250 dilution) for 1 h in the dark/wet chamber at room temperature. The coverslips were mounted on a slide with DAKO mounting medium (Agilent, Santa Clara, USA). Images were analyzed by confocal fluorescence microscopy using the LSM780 NLO Confocal Spectral Microscope (Carl Zeiss, Jena, Germany).
Supplementary Figure 5. Deltasonamide 1 affects the cellular localization of Rheb. Tsc2-wt MEF cells were transfected with pEGFP-C1-GFP-RhebWT (GFP -Rheb) or pEGFP-C1 (GFP only) and treated with 6µM Deltas onamide 1 or DMSO for 24 hours. GFP-Rheb and GFP levels were analyzed by immunofluorescence and confocal microscopy. Scale bar = 20 µm.
(§3) (1 picture or pasted object on this page, not shown here)

[3] = test system: Tsc2-null MEFs; assay: XTT viability assay in Tsc2-null MEFs; assay type: cell-based, mouse; conditions: after 24 h, Deltasonamide 1 6 µM, rapamycin 20 nM
Protocol: (§4) We used XTT based-Cell Proliferation Kit (Biological Industries, USA) according to the manufacturer’s instructions to assess cell viability and proliferation. Briefly, Tsc2-null or Tsc2-wt MEF cells were seeded in 96-well plates and grown in DMEM without phenol red (Biological Industries, Cromwell, USA) at 37°C in 5% CO2. […] After 4 h of incubation, viable cells were detected by measuring the absorbance at 450nm/630 nm using TECAN Infinite® 200 PRO microplate reader (Tecan Group Ltd. Männedorf, Switzerland). The results were expressed as a percentage of absorbance relative to the control group.

[4] = test system: Smad/Smurf; assay: yeast two-hybrid LacZ quantitative measurement, Smad/Smurf control interaction; conditions: 7 and 24 h, titrated concentrations
Protocol: As a control, a yeast two-hybrid was performed using Smad (bait), Smurf (prey), and the empty vectors. To verify positive clones, diploid cells were grown on selective media either lacking tryptophan and leucine (DO-2) or lacking tryptophan, leucine, and histidine (DO-3). To detect lacZ gene expression, diploid cells co-transformed with bait and prey constructs were grown on DO-2 medium supplemented with X-gal substrate. […] To detect lacZ gene expression, diploid cells co-transformed with bait and prey constructs were grown on DO-2 medium supplemented with X-gal substrate. Co-transformed cells able to grow on DO-2 medium and form blue colonies in the presence of X-gal were considered positive bait-prey interaction.

[5] = test system: Tsc2-null MEFs; assay: Live/Dead and CytoTox-Glo cell assay in Tsc2-null MEFs; conditions: Deltasonamide 1 6 µM, rapamycin 20 nM; for effect on cell numbers: vs DMSO
[6] = test system: Caco-2 cells; assay: Caco-2 permeability assay
Protocol: To measure cellular permeability, Caco-2 cells were seeded on a transwell membrane in a 24-well format and grown for 3 weeks to form a monolayer of differentiated cells.

[7] = test system: phospho-S6 ribosomal protein (Ser235/236) in Tsc2-null MEFs; assay: S6 phosphorylation (pS6) by Western blot in Tsc2-null MEFs; assay type: cell-based, mouse; conditions: 0.5-6 µM, 24 h
Protocol: as §1
Proteins were extracted in cold lysis buffer (50 mM Tris-HCl pH 7.4; 10% glycerol; 200 mM NaCl2; 2.5 mM MgCl2; 1% Triton X-100; 1/100 protease inhibitors; 1/100 phosphatase inhibitors) and the protein concentration was determined by Bradford assay. […] Immunolabeled proteins were detected using ECL Western Blotting Detection Reagent (GE Healthcare, Chicago, USA) and visualized in Syngene PXi6 Documentation System (Frederick, MD, USA).
For GFP proteins, Tsc2-wt MEF cells were electroporated with 3 µg of pEGFP-C1-RhebWT (GFP-Rheb) or pEGFP-C1 (GFP only) using NEON™ Transfection System (Invitrogen). […] Images were analyzed by confocal fluorescence microscopy using the LSM780 NLO Confocal Spectral Microscope (Carl Zeiss, Jena, Germany).

[8] = test system: Tsc2-wt MEFs; assay: XTT viability assay in Tsc2-wt MEFs; assay type: cell-based, mouse
Protocol: as §4

[9] = test system: Tsc2-null MEFs; assay: BrdU assay in Tsc2-null MEFs; assay type: cell-based, mouse; conditions: 24 h, Deltasonamide 1 6 µM, rapamycin 20 nM
Protocol: BrdU (5-Bromo-2-deoxyuridine) labeling, and detection kit II (Roche, Basel, Switzerland) were used for the analysis. Briefly, cells were labeled 45 min with 50 µM BrdU and fixed for 20 min at […] with a fixing solution (15 mM glycine pH 2.0, 70% ethanol). Then, cells were incubated with anti-BrdU antibody (1:20 dilution) and nucleases in incubation buffer (66 mM Tris, 0.66 mM MgCl2, 1 mM β-mercaptoethanol) for 30 min at 37°C in a wet chamber. For secondary antibody, Alexa 555 anti-mouse conjugated (1:500 dilution) was used. The nuclei were labeled with Hoechst 33342 diluted 1:250. Finally, the samples were mounted on a slide with DAKO mounting medium. At least 3 images were captured using Olympus CKX41 fluorescence microscope for each condition. BrdU positive cells were analyzed using ImageJ software.

[10] = test system: phospho-p70 S6 kinase (Thr389) in Tsc2-null MEFs; assay: S6K phosphorylation (Thr389) by Western blot in Tsc2-null MEFs; conditions: 24 h
Excerpt: Levels of phospho-p70 S6 kinase (Thr389) (pS6K) were detected by Western blot and measured using densitometric analysis.

[11] = test system: mTORC1 signaling in Tsc2-wt MEFs; assay: mTORC1 signaling by immunoblotting in Tsc2-wt MEFs; assay type: cell-based, mouse; conditions: 4 h and 24 h, Deltasonamide 1 6 µM, rapamycin 20 nM
Protocol: as §2
Supplementary Figure 4. […].
and 24 h (right panel). Lysates were characterized by immunoblotting of the indicated proteins. Results
are representative of three independent experiments.
as §3

[12] = test system: EGF-induced S6 phosphorylation in pancreatic cancer cell lines; design: method as in Papke et al., 2016; conditions: another pancreatic cancer cell line; ref Papke et al., 2016; cited from earlier work

Row | SMILES | effect on 4EBP1 phosphorylation (p4EBP1 levels, top band) [1] | change in electrophoretic pattern of total and phosphorylated 4EBP1 [1] | effect on intracellular Rheb distribution [2] | effect on cell viability (XTT) [3] | effect on the interaction between Smad and Smurf [4] | effect on dead cells ([5]; 24 h) | effect on cell numbers ([5]; 24 h) | effect on percentage of dead cells ([5]; 48 h) | Caco-2 (pH 6.5/7.4) Papp (A→B) ([6]; 10 µM, 2 h, 37°C) | Caco-2 (pH 6.5/7.4) Papp (B→A) ([6]; 10 µM, 2 h, 37°C) | effect on S6 phosphorylation (pS6) [7] | effect on cell viability (XTT) ([8]; 72 h, Deltasonamide 1 6 µM) | effect on BrdU incorporation [9] | LogIC50 of pS6K levels (Figure 3) ([10]; 0.5–8 µM) | effect on mTORC1 activity/signaling [11] | effect on EGF-induced S6 phosphorylation [12] | Caco-2 (pH 6.5/7.4) Papp (A→B) ([6]; Caco-2, pH 6.5) | Caco-2 (pH 6.5/7.4) Papp (B→A) ([6]; Caco-2, pH 6.5) | effect on S6K phosphorylation ([10]; 6 µM) | effect on cell viability (XTT) ([8]; 48 h, rapamycin 20 nM)
1 | CNc1nccc(CN(CC2CCNCC2)S(=O)(=O)c2ccc(S(=O)(=O)N(Cc3ccc(Cl)cc3)C3CCCC3)cc2)n1 [Deltasonamide 1] | could not detect a significant effect | caused the appearance of lower molecular weight bands | disrupted | significantly diminished | not affected | not associated with an increase in dead cells | significantly decreased | significantly increased | 1.6 10^−6 cm/s and 1.56 10^−6 cm/s | 13.67 10^−6 cm/s | dose-dependently reduced | reduced | significantly reduced | -5.347 | did not affect |  |  |  |  | 
2 | Cc1ccc(-n2nc3c(=O)n(CCCC(=O)NCC(C)c4ccccc4)nc(C)c3c2C)cc1 (stereo not shown) [Deltazinone 1] | ineffective |  |  |  | not affected |  |  |  |  |  | did not affect |  |  |  |  | ineffective | 41.1 10^−6 cm/s | 25.1 10^−6 cm/s | ineffective | 
3 | CO[C@H]1C[C@@H]2CC[C@@H](C)[C@@](O)(O2)C(=O)C(=O)N2CCCC[C@H]2C(=O)O[C@H]([C@H](C)C[C@@H]2CC[C@@H](O)[C@H](OC)C2)CC(=O)[C@H](C)/C=C(\C)[C@@H](O)[C@@H](OC)C(=O)[C@H](C)C[C@H](C)/C=C/C=C/C=C/1C [rapamycin] |  | caused the appearance of lower molecular weight bands |  | significantly diminished |  |  | significantly decreased |  |  |  |  |  | significantly reduced |  | significantly affected |  |  |  |  | significantly affected
